Experimental data as given in US6472348B1, “Pyridone derivatives and herbicides” (Kumiai Chemical Industry Co., Ltd., priority 1996, dated 2002).

Columns and labels:
Assay type in all cases: in vivo
[1] = test system: pale smartweed (Po); test: Test Example 5: crop plant selectivity by upland field soil treatment (wheat), herbicidal effects; parameters: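 grade of growth control; 5 = at least 90%; 4 = 70 to 90%; 3 = 50 to 70%; 2 = 30 to 50%; 1 = 10 to 30%; 0 = under 10%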; settings: dose 6.3 g ai/10a, 21st day after application
In short: (§1)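 Pre-emergence soil treatment, sand-filled pots, seeds covered with soil; greenhouse culture; visual scoring of weed control and wheat injury at day 21 post-application.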

[2] = test system: China jute (Ab); test: as above; parameters: scale not given here; settings: dose 6.3 g ai/10a, 21st day after application
In short: as §1

[3] = test system: common lambsquarters (Ch); test: as above; parameters: scale not given here; settings: dose 6.3 g ai/10a, 21st day after application
In short: as §1

[4] = test system: slender amaranth (Am); test: as above; parameters: scale not given here; settings: dose 6.3 g ai/10a, 21st day after application
In short: as §1

[5] = test system: green foxtail (Se); test: as above; parameters: scale not given here; settings: dose 6.3 g ai/10a, 21st day after application
In short: as §1

[6] = test system: barnyardgrass (Ec); test: Test Example 1: herbicidal effects by paddy field soil treatment; settings: 100 g of the active ingredient per 10 ares, 21st day after the application, index 0-5 of Table 47;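 also: grade of growth control; 5 = at least 90%; 4 = 70 to 90%; 3 = 50 to 70%; 2 = 30 to 50%; 1 = 10 to 30%; 0 = under 10%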
In short: (§2)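 Greenhouse pot test in flooded paddy soil, dosed at 100 g a.i. per 10 ares; effect scored on day 21.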

[7] = test system: monochoria (Mo); test: as above; settings: 100 g of the active ingredient per 10 ares, 21st day after the application, index 0-5 of Table 47;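 also: grade of growth control; 5 = at least 90%; 4 = 70 to 90%; 3 = 50 to 70%; 2 = 30 to 50%; 1 = 10 to 30%; 0 = under 10%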
In short: as §2

[8] = test system: bulrush (Sc); test: as above; settings: 100 g of the active ingredient per 10 ares, 21st day after the application, index 0-5 of Table 47;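 also: grade of growth control; 5 = at least 90%; 4 = 70 to 90%; 3 = 50 to 70%; 2 = 30 to 50%; 1 = 10 to 30%; 0 = under 10%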
In short: as §2

[9] = test system: pale smartweed (Po); test: Test Example 4: crop plant selectivity by upland field soil treatment (cotton), herbicidal effects; parameters: scale not given here; settings: dose 6.3 g ai/10 a, evaluated 21st day after application
In short: (§3)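 Seeds of cotton and several weed species were sown in sand-filled pots and covered with soil before soil treatment with the test compound. Plants were grown in a greenhouse, and herbicidal effect and crop phytotoxicity were scored against set standards 21 days after application.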

[10] = test system: China jute (Ab); test: as above; parameters: scale not given here; settings: dose 6.3 g ai/10 a, evaluated 21st day after application
In short: as §3

[11] = test system: common lambsquarters (Ch); test: as above; parameters: scale not given here; settings: dose 6.3 g ai/10 a, evaluated 21st day after application
In short: as §3

[12] = test system: slender amaranth (Am); test: as above; parameters: scale not given here; settings: dose 6.3 g ai/10 a, evaluated 21st day after application
In short: as §3

[13] = test system: green foxtail (Se); test: as above; parameters: scale not given here; settings: dose 6.3 g ai/10 a, evaluated 21st day after application
In short: as §3

[14] = test system: corn (Ze); test: Test Example 7: crop plant selectivity by upland field soil treatment (corn), phytotoxicity; parameters: scale not given here; settings: dose 6.3 g ai/10a, 21st day after application
In short: (§4)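 Sand-filled pot; corn plus weeds sown, soil-covered. Post-application greenhouse culture. Herbicidal effect/phytotoxicity rated day 21 per standard scale.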

[15] = test system: wheat (Tr); test: Test Example 5: crop plant selectivity by upland field soil treatment (wheat), phytotoxicity; parameters: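 grade of crop injury; 5 = at least 90%; 4 = 70 to 90%; 3 = 50 to 70%; 2 = 30 to 50%; 1 = 10 to 30%; 0 = under 10%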; settings: dose 6.3 g ai/10a, 21st day after application
In short: as §1

[16] = test system: cotton (Go); test: Test Example 4: crop plant selectivity by upland field soil treatment (cotton), phytotoxicity; parameters: scale not given here; settings: dose 6.3 g ai/10 a, evaluated 21st day after application
In short: as §3

[17] = test system: pale smartweed (Po); test: Test Example 3: herbicidal effects by upland field foliage treatment; parameters: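 grade of growth control; 5 = at least 90%; 4 = 70 to 90%; 3 = 50 to 70%; 2 = 30 to 50%; 1 = 10 to 30%; 0 = under 10%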; settings: 100 g active ingredient per 10 ares, evaluated 14th day after treatment
In short: (§5)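 Foliage-applied treatment on weeds pre-grown for 2 weeks in a greenhouse. Pots held sand (surface area 120 cm^2); seeds were sown and covered with soil. Evaluation: graded herbicidal effect 14 days post-application.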

[18] = test system: barnyardgrass (Ec); test: as above; parameters: scale not given here; settings: 100 g active ingredient per 10 ares, evaluated 14th day after treatment
In short: as §5

[19] = test system: rice flatsedge (Ci); test: as above; parameters: scale not given here; settings: 100 g active ingredient per 10 ares, evaluated 14th day after treatment
In short: as §5

[20] = test system: common lambsquarters (Ch); test: as above; parameters: scale not given here; settings: 100 g active ingredient per 10 ares, evaluated 14th day after treatment
In short: as §5

[21] = test system: slender amaranth (Am); test: as above; parameters: scale not given here; settings: 100 g active ingredient per 10 ares, evaluated 14th day after treatment
In short: as §5

[22] = test system: Diaitaria ciliaris (Di); test: as above; parameters: scale not given here; settings: 100 g active ingredient per 10 ares, evaluated 14th day after treatment
In short: as §5

[23] = test system: soybean (Gl); test: Test Example 6: crop plant selectivity by upland field soil treatment (soybean), phytotoxicity; parameters: scale not given here; settings: dose 6.3 g ai/10a, 21st day after application
In short: (§6)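 Greenhouse pot test with soil-applied compound after sowing soybean and weeds in sand; effects graded on day 21 after application.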

[24] = test system: pale smartweed (Po); test: Test Example 7: crop plant selectivity by upland field soil treatment (corn), herbicidal effects; parameters: scale not given here; settings: dose 6.3 g ai/10a, 21st day after application
In short: as §4

[25] = test system: China jute (Ab); test: as above; parameters: scale not given here; settings: dose 6.3 g ai/10a, 21st day after application
In short: as §4

[26] = test system: common lambsquarters (Ch); test: as above; parameters: scale not given here; settings: dose 6.3 g ai/10a, 21st day after application
In short: as §4

[27] = test system: slender amaranth (Am); test: as above; parameters: scale not given here; settings: dose 6.3 g ai/10a, 21st day after application
In short: as §4

[28] = test system: green foxtail (Se); test: as above; parameters: scale not given here; settings: dose 6.3 g ai/10a, 21st day after application
In short: as §4

[29] = test system: pale smartweed (Po); test: Test Example 2: herbicidal effects by upland field soil treatment; settings: 100 g of the active ingredient per 10 ares, evaluated on the 21st day after application;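 also: grade of growth control; 5 = at least 90%; 4 = 70 to 90%; 3 = 50 to 70%; 2 = 30 to 50%; 1 = 10 to 30%; 0 = under 10%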
From the text: (§7) (Test on Herbicidal Effects by Upland Field Soil Treatment)

[30] = test system: barnyardgrass (Ec); test: as above; settings: 100 g of the active ingredient per 10 ares, evaluated on the 21st day after application
From the text: as §7

[31] = test system: rice flatsedge (Ci); test: as above; settings: 100 g of the active ingredient per 10 ares, evaluated on the 21st day after application
From the text: as §7

[32] = test system: common lambsquarters (Ch); test: as above; settings: 100 g of the active ingredient per 10 ares, evaluated on the 21st day after application
From the text: as §7

[33] = test system: Digitaria ciliaris (Di); test: as above; settings: 100 g of the active ingredient per 10 ares, evaluated on the 21st day after application
From the text: as §7

[34] = test system: slender amaranth (Am); test: as above; settings: 100 g of the active ingredient per 10 ares, evaluated on the 21st day after application
From the text: as §7

[35] = test system: pale smartweed (Po); test: Test Example 6: crop plant selectivity by upland field soil treatment (soybean), herbicidal effects; parameters: scale not given here; settings: dose 6.3 g ai/10a, 21st day after application
In short: as §6

[36] = test system: China jute (Ab); test: as above; parameters: scale not given here; settings: dose 6.3 g ai/10a, 21st day after application
In short: as §6

[37] = test system: common lambsquarters (Ch); test: as above; parameters: scale not given here; settings: dose 6.3 g ai/10a, 21st day after application
In short: as §6

[38] = test system: slender amaranth (Am); test: as above; parameters: scale not given here; settings: dose 6.3 g ai/10a, 21st day after application
In short: as §6

[39] = test system: green foxtail (Se); test: as above; parameters: scale not given here; settings: dose 6.3 g ai/10a, 21st day after application
In short: as §6

| SMILES | Herbicidal effects Po [1] | Herbicidal effects Ab [2] | Herbicidal effects Ch [3] | Herbicidal effects Am [4] | Herbicidal effects Se [5] | Herbicidal effects Ec [6] | Herbicidal effects Mo [7] | Herbicidal effects Sc [8] | Herbicidal effects Po [9] | Herbicidal effects Ab [10] | Herbicidal effects Ch [11] | Herbicidal effects Am [12] | Herbicidal effects Se [13] | Phytotoxicity Ze [14] | Phytotoxicity Tr [15] | Phytotoxicity Go [16] | Herbicidal effects Po [17] | Herbicidal effects Ec [18] | Herbicidal effects Ci [19] | Herbicidal effects Ch [20] | further results |
| --- | --- | --- | --- | --- | --- | --- | --- | --- | --- | --- | --- | --- | --- | --- | --- | --- | --- | --- | --- | --- | --- |
| CON=C(C)c1cc(-c2ccc(C(F)(F)F)n(C)c2=O)c(F)cc1Cl [Compound 1-192] | 5 | 5 | 5 | 5 | 5 | 5 | 5 | 5 | 5 | 5 | 5 | 5 | 5 | 2 | 2 | 0 | 5 | 5 | 5 | 5 | Herbicidal effects Am [21]: 5; Herbicidal effects Di [22]: 5; Phytotoxicity Gl [23]: 1; Herbicidal effects Po [24]: 5; Herbicidal effects Ab [25]: 5; Herbicidal effects Ch [26]: 5; Herbicidal effects Am [27]: 5; Herbicidal effects Se [28]: 5; Herbicidal effects Po [29]: 5; Herbicidal effects Ec [30]: 5; Herbicidal effects Ci [31]: 5; Herbicidal effects Ch [32]: 5; Herbicidal effects Di [33]: 5; Herbicidal effects Am [34]: 5; Herbicidal effects Po [35]: 5; Herbicidal effects Ab [36]: 5; Herbicidal effects Ch [37]: 5; Herbicidal effects Am [38]: 5; Herbicidal effects Se [39]: 5 |
| COCCOCOc1cc(-c2ccc(C(F)(F)F)n(C)c2=O)c(F)cc1Cl [Compound 1-207] | 5 | 5 | 5 | 5 | 5 | 5 | 5 | 5 | 5 | 5 | 5 | 5 | 5 | 1 | 1 | 0 | 5 | 5 | 5 | 5 | Herbicidal effects Am [21]: 5; Herbicidal effects Di [22]: 5; Phytotoxicity Gl [23]: 1; Herbicidal effects Po [24]: 5; Herbicidal effects Ab [25]: 5; Herbicidal effects Ch [26]: 5; Herbicidal effects Am [27]: 5; Herbicidal effects Se [28]: 5; Herbicidal effects Po [29]: 5; Herbicidal effects Ec [30]: 5; Herbicidal effects Ci [31]: 5; Herbicidal effects Ch [32]: 5; Herbicidal effects Di [33]: 5; Herbicidal effects Am [34]: 5; Herbicidal effects Po [35]: 5; Herbicidal effects Ab [36]: 5; Herbicidal effects Ch [37]: 5; Herbicidal effects Am [38]: 5; Herbicidal effects Se [39]: 5 |
